In patent US6448401B1, “Process for water soluble azole compounds” (Bristol-Myers Squibb Company, priority 2000, dated 2002):
≈ marks a conversion by molar mass, not a printed value.

Experiments:
[1] = aqueous solubility; conditions: for solubility (in words): crystalline salts
[2] = stability (in solution / of salts); conditions: for stability (in words): crystalline salts
[3] = conversion of prodrug to parent drug in vivo

C[C@@H](c1nc(-c2ccc(C#N)cc2)cs1)[C@@](Cn1cncn1)(OCOP(=O)(O)O)c1ccc(F)cc1F.NCCCC[C@H](N)C(=O)O.NCCCC[C@H](N)C(=O)O [Example 3, Bis lysine salt of (2R,3R)-3-[4-(4-cyanophenyl)thiazol-2-yl]-2-(2,4-difluorophenyl)-1-(1H-1,2,4-triazol-1-yl)-2-[(dihydrogenphosphonoxy)methoxy]butane]
solubility (in words) [1]: good solubility | stability (in words) [2]: good solubility and stability

C[C@@H](c1nc(-c2ccc(C#N)cc2)cs1)[C@@](Cn1cncn1)(OCOP(=O)(O)O)c1ccc(F)cc1F [Example 2, (2R,3R)-3-[4-(4-cyanophenyl)thiazol-2-yl]-2-(2,4-difluorophenyl)-1-(1H-1,2,4-triazol-1-yl)-2-[(dihydrogenphosphonoxy)methoxy]butane]
solubility ([1]; aqueous solution, pH 4.3, aqueous buffer): 5000 to 6000 µg/mL (≈ 9.13 to 11 mM) | solubility ([1]; aqueous solution, pH 7, aqueous buffer): > 10000 µg/mL | stability in solution ([2]; in solution): stable in solution | conversion to parent drug in vivo [3]: readily converted to parent drug in vivo

CC(C)(C)N.C[C@@H](c1nc(-c2ccc(C#N)cc2)cs1)[C@@](Cn1cncn1)(OCOP(=O)(O)O)c1ccc(F)cc1F [Example 4, Tert-butyl amine salt of (2R,3R)-3-[4-(4-cyanophenyl)thiazol-2-yl]-2-(2,4-difluorophenyl)-1-(1H-1,2,4-triazol-1-yl)-2-[(dihydrogenphosphonoxy)methoxy]butane]
solubility (in words) [1]: good solubility | stability (in words) [2]: good solubility and stability

C[C@@H](c1nc(-c2ccc(C#N)cc2)cs1)[C@](O)(Cn1cncn1)c1ccc(F)cc1F [(2R,3R)-3-[4-(4-cyanophenyl)thiazol-2-yl]-2-(2,4-difluorophenyl)-1-(1 H-1,2,4-triazol-1-yl)-butan-2-ol, reference compound]
solubility ([1]; water, pH 6.8, water): 0.6 µg/mL (≈ 0.00137 mM)
